This note sets out measurements from patent publication USRE42072E1, “Compositions and methods for enhancing receptor-mediated cellular internalization” (The Penn State Research Foundation, priority 1996, dated 2011).

Series [1] can be described thus: Bioavailability of peptides after vaginal administration to sheep, relative to intravenous injection. Particulars: in vivo. As for the experimental part: (§1) First, a peptide that undergoes receptor-mediated transport across the vaginal epithelium was identified by studying the permeation of peptides of varying molecular weight in a sheep model. Peptides were delivered vaginally to sheep in 5 ml of aqueous or methocel solutions with typical peptide concentrations of 10-40 μg/ml. A group of 18 intact ewes were utilized for these experiments. For each study, sheep were randomly assigned to a treatment group. In GnRH studies where each animal received all possible treatment combinations, each animal was assigned to an initial treatment group at random and subsequently randomly to each of the remaining treatment groups. A minimum of 5 days (typically 10 or more days) was allowed between experiments on a given animal, to provide sufficient time for complete recovery of pituitary responsiveness to the highest doses of the GnRH agonist used A 16G 150 mm jugular catheter (Abbocath-T, Abbott Laboratories, Chicago, Ill.) was inserted and blood samples collected at 0, 30, 60, 90, 120, 180, 240, 360, 480 and 1440 min. after treatment. Luteinizing hormone (LH) levels were determined.
(§2) LHRH analog was placed in methyl cellulose solutions (“methocels”) of varying apparent viscosity. […] First, 200 μg of leuprolide acetate in 5 ml of aqueous solutions with melhocel weight concentrations varying between 0% and 3.0% were vaginally administered.
The enhanced bioavailability of LHRH also coincides with a longer-term release into the systemic circulation at the optimal methocel concentrations. […] To test this hypothesis, the efficacy of a second, physically cross-linked hydrogel that was believed would not enhance endocytosis, but whose apparent viscosity (in the range of hydrogel concentrations 0.0-5.5%) was similar to that of the methocels (in the range 0.0-3.0%) was examined.

Series [2] has as its system luteinizing hormone (LH). As to the kind of experiment: Serum LH response to iv injection and vaginal administration of LHRH analog in intact ewes. In kind it is in vivo, sheep. As for the experimental part: FIGS. 1a and 1b are graphs showing serum responses to iv injection and vacinal administration of vasopressin and leuprolide acetate. […] Vasopressin was injected intravenously ([…]) through a jugular catheter. The peptide was delivered vaginally in 5 ml of aqueous solution (200 g does). Standard errors are based on n=6. […] LHRH analog was injected intravenously ([…]) into through a jugular catheter. The peptide was delivered vaginally in 5 ml of aqueous solution (200 g dose). Standard errors are based on n=6.
FIG. 2 is a graph showing bioavailability of LHRH analog following vaginal administration as a function of methyl cellulose (“methocel”) concentration. Bioavailability is determined relative to intravenous injection (FIG. 1b) and is based on LH response. The administered dose of LHRH analog was 200 g in 5 ml of methocel solution. Results are based on animals that responded to vaginal treatment, with standard error computed on the basis of n≧4 In all cases, less than 50% of treated animals responded with LH levels greater than 3 ng/ml for more than one sampling point, with sampling times of 0, 30, 60, 90, 120, 180, 240, 360, and 480 min.
as §1, §2

The nature of series [3]: in vivo. In kind it is in vivo, sheep. Particulars: female, sheep, in vivo, 40 ug, bioavailability. The method, then: (§3) FIG. 3 is a graph showing the percent of responding animals to LHRH analog vaginal delivery as a function of (simulated) stage of the estrous cycle. Stage of estrous cycle was simulated by delivering estradiol for two weeks to ovariectomized ewes (anestrus phase), followed by two weeks of delivery of estradiol and progesterone (mid-luteal phase), followed by a period of 48 h after progesterone withdrawal (follicular phase). In each simulated phase, 10, 40, or […] of LHRH analog were delivered vaginally in 5 ml of aqueous or methocel solution to groups of six ewes. Responding animals were defined as those treated animals with LH serum values exceeding 3 ng/ml for two or more sampling points, with sampling times of 0, 30, 60, […], 120, 180, 240, 360, and 480 min.
(§4) FIG. 4 is a graph showing serum LH response to vaginal administration of LHRH analog. LHRH analog-was administered vaginally in ovariectomized ewes during the simulated mid-luteal phase in 5 ml of aqueous or methocel (1.75% methyl cellulose) solution (40 μg dose). Standard errors are based on n=6.
(§5) It was therefore hypothesized that the responsiveness of animals to LHRH analog vaginal delivery varied with steroid-dependent hormone receptor expression (estrous cycle). To test this hypothesis, a group of ewes was ovariectomized and administered estradiol and progesterone to mimic the animals' estrous cycle. Ewes were pre-medicated with atropine (0.02 mg/lb) and Telazol (R) (2 mg/lb) intramuscularly. After induction of recumbency, thipental (5% in water) was administered intravenously to induce sufficient anesthesia to permit endotracheal intubation. Anesthesia was maintained using halothane in oxygen at 1-2 liters per minute. Ovaries were removed through a mid-line incision.
(§6) Within 24 h of surgery, a 1.5 cm silicone implant of estradiol (Compudose 200, Elanco, Ind.) was inserted into the left ear to provide a basal level of estradiol. The anestrus state was simulated after two weeks of estradiol delivery following surgery. Experiments were performed in the simulated anestrus state (i.e. two weeks after surgery) as described above. Immediately following the last blood sample, a progesterone-releasing intravaginal device (CIDR-G, Carter Hold Harvey Plastic Products, Hamilton, New Zealand) was inserted.
(§7) In a parallel study, an alternative progesterone-releasing device (Snychro-Mate-B, Sanofi Animal Health, Overland Park, Kans.) was placed in the left ear. The mid-luteal phase was simulated after permitting a 10 day intravaginal or ear progesterone treatment. Experiments were performed in the simulated mid-luteal phase as described above.
(§8) The progesterone-releasing (vaginal or ear) implant was removed and the follicular phase was simulated by allowing a time lapse of 48 h. Experiments were performed in the follicular phase as described above.
(§9) Next, 200 μg of leuprolide acetate in 5 ml of aqueous solutions was vaginally administered during simulated anestrus (estradiol only), mid-luteal (estradiol and progesterone), and follicular (48 h after progesterone withdrawal) phases, as described above. […] In contrast, 100% of animals responded when treated with progesterone and estradiol (FIG. 3).

Series [4] relates to luteinizing hormone (LH). As to the kind of experiment: in vivo. The format is in vivo, sheep. As to conditions: for animals responded: vaginal 200 μg; for LH response: vaginal, progesterone and estradiol treatment. The method, then: as §3, §4, §5, §6, §7, §8, §9

The bioavailability is dose-corrected exposure relative to a reference, in per cent. As for `CCNC(=O)[C@@H]1CCCN1C(=O)[C@H](CCCNC(=N)N)NC(=O)[C@H](CC(C)C)NC(=O)[C@@H](CC(C)C)NC(=O)[C@H](Cc1ccc(O)cc1)NC(=O)[C@H](CO)NC(=O)[C@H](Cc1c[nH]c2ccccc12)NC(=O)[C@H](Cc1c[nH]cn1)NC(=O)[C@@H]1CCC(=O)N1` [leuprolide acetate], the bioavailability in series [1] (female, sheep) is 2.6 ± 0.9%; in series [3] it was 6%; in series [4] (female, sheep, in vivo, 40 ug) it was 10%. Further, the “duration of delivery as a function of control gel concentration” value in series [1] was “diminished with increasing control gel concentration”. In series [1] (sheep), the “bioavailability as a function of control hydrogel concentration” value was “diminished with increasing concentration of the hydrogel”. For the same compound, the “bioavailability as a function of methocel concentration” value in series [1] (sheep, 200 ug) is reported as “increase as methocel concentration increased to 1.75%, then to fall at higher methocel concentration”. The “luteinizing hormone (LH) response” value is “significant” in series [2] (intravenous injection (FIG. 1b)) and “significant” in series [2] (vaginal administration, aqueous solution (FIG. 1b)). Further, the “animals showing little or no response” value in series [2] (vaginal administration, intact ewes, bimodal distribution) is listed as “approximately 30%”. Further, the “treated animals that responded with LH levels greater than 3 ng/ml for more than one sampling point” value in series [2] (vaginal, 5 ml methocel solution, intact ewes, all methocel concentrations (FIG. 2)) is “less than 50%”. Moreover, the animals responded in series [4] (treated with progesterone and estradiol (FIG. 3)) is listed as 100%; in series [4] (with or without 1.75% methocel, estrogen replacement without progesterone) it was “less than 50%”. For the same compound, the LH response entry in series [4] (highest dose, with and without methocel) is “saturated”; in series [4] (lowest dose (10 μg)), “undetectable”.
